In assay [1] the target is T1, human NTCP (Homo sapiens, UniProt Q14973).
T1 sequence (Q14973 1-349): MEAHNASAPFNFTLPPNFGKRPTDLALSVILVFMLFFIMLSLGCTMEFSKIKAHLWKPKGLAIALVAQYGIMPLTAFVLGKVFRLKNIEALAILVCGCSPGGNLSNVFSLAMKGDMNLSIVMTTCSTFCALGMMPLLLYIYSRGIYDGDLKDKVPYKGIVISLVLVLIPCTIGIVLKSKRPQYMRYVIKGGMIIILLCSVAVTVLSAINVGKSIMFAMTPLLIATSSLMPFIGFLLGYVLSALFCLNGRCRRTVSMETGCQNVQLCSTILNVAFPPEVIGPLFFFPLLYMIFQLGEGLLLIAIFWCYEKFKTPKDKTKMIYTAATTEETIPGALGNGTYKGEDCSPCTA
The experiment in a line: Screening fluorescent competitive Myrcludex B-FITC binding assay (96-well, 10 µM drug).

Assay [2] has as its target T1, human NTCP. The experiment in a line: Screening taurocholate uptake assay (96-well, [14C]taurocholate, 10 µM drug).
[3] abbreviates: Prestwick library screen, Myrcludex B-FITC binding, 10 µM drug.
Setting [4] is: Prestwick library screen, taurocholate uptake, 10 µM drug.
Setting [5] is: ranking score beside the functional and binding assay B-scores of the screen.
Setting [6] is: screen, 10 µM drug, Myrcludex B-FITC binding.
[7] abbreviates: combined ranking from functional and binding screening assays.
Where [8] appears, read: screen, 10 µM drug, taurocholate uptake.
[9] abbreviates: Prestwick library screen, 10 µM drug, B-score of Myrcludex B-FITC binding.
The mark [10] stands for this setting: Prestwick library screen, 10 µM drug, B-score of taurocholate uptake.
[11] abbreviates: combined ranking from functional and binding assay B-scores.

Counter-ions that a name gives are not always drawn. Like-named read-outs stand apart in the source and are kept apart here. Non-standard residues stand in square brackets, D forms with d. Residues, ends and D or L forms follow the SMILES beside them. pGlu = O=C1CC[C@@H](C(=O)O)N1; Thz = O=C(O)[C@@H]1CSCN1

We go through 30 compounds from PMC5681660, “Reduced hepatitis B and D viral entry using clinically applied drugs as novel inhibitors of the bile acid transporter NTCP” (Scientific Reports, 2017).

On to `C1CCc2nnnn2CC1` [Pentylenetetrazole], for which the B-score binding assay in assay [1] (setting [3]) is -0.037. In assay [2] (setting [4]), this compound registered a B-score functional assay of 0.223. The Ranking score in assay [2] (setting [5]) is given as 696.951.

Regarding `CC1(C)S[C@@H]2[C@H](NC(=O)Cc3ccccc3)C(=O)N2[C@H]1C(=O)O` [Benzylpenicillin sodium], the B-score binding assay in assay [1] (setting [6]) was -1.247. Besides, the Ranking score in assay [2] (setting [7]) came to 344.346. For the same compound, in assay [2] (setting [8]), the B-score functional assay is on record as -0.043.

For the compound `CC(C)NC[C@@H](O)COc1cccc2ccccc12.Cl` [(R)-Propranolol hydrochloride], the B-score binding assay in assay [1] came out at 0.252. Moreover, in assay [2], the B-score functional assay stood at 1.016 and the Ranking score was determined as 935.855.

On to `O=C1CC[C@@H](C(=O)N2CSC[C@H]2C(=O)O)N1` [Pidotimod] ([pGlu]-[Thz]-OH), for which the B-score binding assay in assay [1] (setting [9]) was determined as 0.063. The compound also returned a B-score functional assay in assay [2] (setting [10]) of 1.132. Further, the Ranking score in assay [2] (setting [11]) was found to be 884.212.

As to `COc1cc2c(cc1OC)C(C)NCC2.Cl` (stereo not drawn), in assay [1] (setting [9]), the B-score binding assay came to 0.343. Also, in assay [2] (setting [10]), the B-score functional assay was determined as 2.498. Also, in assay [2] (setting [11]), the Ranking score was 1023.83.

Take `CN(Cc1ccc(C(C)(C)C)cc1)Cc1cccc2ccccc12` [Butenafine Hydrochloride]: the B-score binding assay in assay [1] (setting [9]) worked out at 0.435. In assay [2] (setting [10]), this compound registered a B-score functional assay of 1.115. In addition, the Ranking score in assay [2] (setting [11]) was 986.495.

As to `CC(C)NC[C@@H](O)COc1ccc(CC(N)=O)cc1` [(R)-(+)-Atenolol], in assay [1] (setting [3]), the B-score binding assay stood at 0.009. Besides, the B-score functional assay in assay [2] (setting [4]) is 0.006. The same compound had a Ranking score in assay [2] (setting [5]) of 655.981.

`COC(=O)C1=C(C#N)NC(C)=C(C(=O)OC(C)C)C1c1cccc([N+](=O)[O-])c1` (stereo not drawn) [Nilvadipine] had a B-score binding assay in assay [1] (setting [6]) of 2.397. In addition, in assay [2] (setting [7]), the Ranking score is recorded as 384.686. The B-score functional assay in assay [2] (setting [8]) is recorded as -2.135.

As for `Oc1ccc2c3c1O[C@H]1[C@@H](O)CC[C@@]4(O)[C@@H](C2)N(CC2CCC2)CC[C@]314` [Nalbuphine hydrochloride], the B-score binding assay in assay [1] is listed as -0.132. In addition, in assay [2], the B-score functional assay is recorded as -1.445 and the Ranking score came to 312.49.

In the case of `CC1(C)[C@H](C(=O)O)N2C(=O)C[C@H]2S1(=O)=O` [Sulbactam], in assay [1] (setting [6]), the B-score binding assay is -1.629. For the same compound, the Ranking score in assay [2] (setting [7]) is recorded as 399.332. Moreover, the B-score functional assay in assay [2] (setting [8]) amounted to 1.339.

Compound Spiramycin yielded a B-score binding assay in assay [1] (setting [9]) of 0.801. In addition, the B-score functional assay in assay [2] (setting [10]) was found to be 0.83. For the same compound, the Ranking score in assay [2] (setting [11]) is 1002.4.

In the case of `CC(C)(C)NC(=O)[C@H]1CC[C@H]2[C@@H]3CC[C@H]4NC(=O)C=C[C@]4(C)[C@H]3CC[C@]12C` [Finasteride], the B-score binding assay in assay [1] (setting [6]) is listed as 0.768. Further, the Ranking score in assay [2] (setting [7]) came to 406.586. This compound also had a B-score functional assay in assay [2] (setting [8]) of -1.623.

`Cc1noc(NS(=O)(=O)c2ccc(N)cc2)c1C` [Sulfisoxazole] gave a B-score binding assay in assay [1] (setting [3]) of 0.207. In assay [2] (setting [4]), this compound came in with a B-score functional assay of -0.089. The compound also returned a Ranking score in assay [2] (setting [5]) of 663.513.

On to `CN(C/C=C/c1ccccc1)Cc1cccc2ccccc12` [Naftifine hydrochloride], for which, in assay [1] (setting [3]), the B-score binding assay is given as -0.234. This compound came in with a B-score functional assay in assay [2] (setting [4]) of 0.726. For the same compound, the Ranking score in assay [2] (setting [5]) was found to be 685.775.

`CC[C@H]1OC(=O)C[C@@H](O)[C@H](C)[C@@H](O[C@@H]2O[C@H](C)[C@@H](O[C@H]3C[C@@](C)(O)[C@@H](O)[C@H](C)O3)[C@H](N(C)C)[C@H]2O)[C@@H](CC=O)C[C@@H](C)C(=O)/C=C/C(C)=C/[C@@H]1CO[C@@H]1O[C@H](C)[C@@H](O)[C@@H](OC)[C@H]1OC` [Tylosin] returned a B-score binding assay in assay [1] (setting [9]) of 2.256. In assay [2] (setting [10]), this compound gave a B-score functional assay of 0.165. The Ranking score in assay [2] (setting [11]) was 978.04.

The compound `CN1CCC(=C2c3ccccc3CC(=O)c3sccc32)CC1` [Ketotifen fumarate] showed a B-score binding assay in assay [1] (setting [6]) of -0.838. For the same compound, the Ranking score in assay [2] (setting [7]) stood at 425.088. The B-score functional assay in assay [2] (setting [8]) turned out to be 0.006.

In turn, `C1N2CN3CN1CN(C2)C3` [Methenamine] had a B-score binding assay in assay [1] (setting [9]) of 0.067. In assay [2] (setting [10]), this compound had a B-score functional assay of 1.472. For the same compound, the Ranking score in assay [2] (setting [11]) is reported as 906.386.

As to `COc1ccc2c(c1)N(C[C@H](C)CN(C)C)c1ccccc1S2.O=C(O)/C=C\C(=O)O` [Methotrimeprazine maleat salt], the B-score binding assay in assay [1] (setting [3]) was -0.27. The same compound yielded a B-score functional assay in assay [2] (setting [4]) of 1.773. In assay [2] (setting [5]), this compound yielded a Ranking score of 734.211.

The compound `CCCCN(CCCC)CCC(O)c1cc2c(Cl)cc(Cl)cc2c2cc(C(F)(F)F)ccc12` (stereo not drawn) [Halofantrine hydrochloride] came in with a B-score binding assay in assay [1] (setting [6]) of -1.143. The Ranking score in assay [2] (setting [7]) was 393.07. For the same compound, in assay [2] (setting [8]), the B-score functional assay is reported as 0.058.

Turning to `CN(C)/N=N/c1[nH]cnc1C(N)=O` [Dacarbazine], the B-score binding assay in assay [1] (setting [9]) was found to be 1.762. This compound also returned a B-score functional assay in assay [2] (setting [10]) of 0.084. The Ranking score in assay [2] (setting [11]) is 928.431.

In assay [1] (setting [6]), `COc1cc([C@@H]2c3cc4c(cc3[C@@H](O[C@@H]3O[C@@H]5CO[C@@H](C)O[C@H]5[C@H](O)[C@H]3O)[C@H]3COC(=O)[C@H]23)OCO4)cc(OC)c1O` [Etoposide] showed a B-score binding assay of 0.046. For the same compound, in assay [2] (setting [7]), the Ranking score was 333.467. The compound also showed a B-score functional assay in assay [2] (setting [8]) of -1.678.

In assay [1] (setting [3]), `COc1cc(OC)c(C(=O)CCCN2CCCC2)c(OC)c1.Cl` [Buflomedil hydrochloride] came in with a B-score binding assay of -0.086. Besides, in assay [2] (setting [4]), the B-score functional assay turned out to be 2.687. The Ranking score in assay [2] (setting [5]) turned out to be 823.499.

In assay [1] (setting [6]), `CC(C)/N=c1\cc2n(-c3ccc(Cl)cc3)c3ccccc3nc-2cc1Nc1ccc(Cl)cc1` [Clofazimine] returned a B-score binding assay of -0.74. In addition, the Ranking score in assay [2] (setting [7]) turned out to be 436.188. The B-score functional assay in assay [2] (setting [8]) is reported as -0.006.

Turning to `CNCCC(Oc1ccccc1OC)c1ccccc1` (stereo not drawn) [Nisoxetine hydrochloride], in assay [1], the B-score binding assay is recorded as -0.726. In assay [2], the B-score functional assay is recorded as -0.598 and the Ranking score stood at 324.321.

`O=C(O)CCC(=O)c1ccc(-c2ccccc2)cc1` [Fenbufen] came in with a B-score binding assay in assay [1] (setting [6]) of -0.209. The Ranking score in assay [2] (setting [7]) was 326.986. The compound further registered a B-score functional assay in assay [2] (setting [8]) of -1.216.

Compound `C#CCN(C)Cc1ccccc1` [Pargyline hydrochloride] registered a B-score binding assay in assay [1] (setting [3]) of 0.419. In addition, in assay [2] (setting [4]), the B-score functional assay is listed as -0.107. This compound also had a Ranking score in assay [2] (setting [5]) of 685.259.

`NCCCCCC(=O)O` [Aminocaproic acid] registered a B-score binding assay in assay [1] (setting [9]) of 1.053. The B-score functional assay in assay [2] (setting [10]) amounted to 1.656. The Ranking score in assay [2] (setting [11]) is given as 1108.16.

In assay [1] (setting [6]), `CC[N+](C)(C)Cc1ccccc1Br` [Bretylium tosylate] gave a B-score binding assay of 1.504. Also, the Ranking score in assay [2] (setting [7]) was found to be 436.134. The compound further returned a B-score functional assay in assay [2] (setting [8]) of -1.625.

The compound `O=C(O)c1cccnc1` [Niacin] came in with a B-score binding assay in assay [1] (setting [3]) of 0.206. Besides, the B-score functional assay in assay [2] (setting [4]) amounted to 0.004. In assay [2] (setting [5]), this compound displayed a Ranking score of 716.877.

With `C[C@H]1C[C@H]2[C@@H]3CCC4=CC(=O)C=C[C@]4(C)[C@@]3(F)[C@@H](O)C[C@]2(C)[C@@]1(O)C(=O)CO` [Betamethasone], the B-score binding assay in assay [1] (setting [3]) is listed as -0.13. The compound also displayed a B-score functional assay in assay [2] (setting [4]) of 0.975. Further, the Ranking score in assay [2] (setting [5]) was 747.052.
